Laboratory results taken from patent US4182760A, “Benzophenone anti-oximes, diazepin-N-oxides, and their use as pharmaceutical agents and as intermediates for pharmaceutical agents” (E. I. Du Pont de Nemours and Company, priority 1977, dated 1980).

What was measured:
[1] = system: lift reflex; assay: Prehensile traction test, lift reflex; type: in vivo; settings: loss of lift reflex; for ED50: mouse, read-out: Mouse ED50, Prehensile Reflexes, Lift
From the text: (§1) Standard procedures for detecting and comparing the tranquilizer, muscle-relaxant, and sedative activity of compounds in this series for which there is a correlation with human efficacy are the following: pinna reflex tests, […] reflex tests, a muscle relaxant (anti-Straub tail) test, an antipentylenetetrazole test, and a mouse activity supression test (MAST).
(§2) The mouse is gently swung by the tail toward a horizontal 12 gauge wire tautly stretched 25 cm above the bench. After the mouse grasps the wire with its forepaws, its posterior end is held directly below the wire. A normal mouse grasps the wire with its forepaws and immediately lifts its hind limbs to the wire. Failure to grasp the wire with the forepaws in one of 2 trials constitutes loss of the grip reflex; failure to lift the hind limbs to grasps the wire with at least one hind paw within 5 seconds constitutes loss of the lift reflex.
(§3) Potency in the antipentylenetetrazole (PTZ) and the MAST indicates a potent antianxiety agent. Great potency for blockade of the mouse auditory pinna reflex with little or no effect on tactile pinna reflex is characteristic of minor tranquilizers. Centrally acting skeletal muscle relaxants profoundly affect the lift reflex with little effect on the grip reflex.
(§4) The following table includes the results of these tests conducted with the compounds of this invention; it also includes the results for diazepam and chlordiazepoxide, two well-known benzodiazepines widely-used commercially as tranquilizers.

[2] = system: grip reflex; assay: Prehensile traction test, grip reflex; type: in vivo; settings: loss of grip reflex; for ED50: mouse, read-out: Mouse ED50, Prehensile Reflexes, Grip
From the text: as §1, §2, §3, §4

[3] = system: shock-induced suppression of exploratory locomotor behavior; assay: Mouse activity suppression test (MAST); type: in vivo; settings: fasted female white mice, dosed orally, 0.2 ma shock for 2.0 seconds per crossing; for ED20: Mus musculus, po
From the text: (§5) Standard procedures for detecting and comparing the tranquilizer, muscle-relaxant, and sedative activity of compounds in this series for which there is a correlation with human efficacy are the following: pinna reflex tests, prehensile traction reflex tests, a muscle relaxant (anti-Straub tail) test, an antipentylenetetrazole test, and a mouse activity supression test (MAST).
MOUSE ACTIVITY S[…] (MAST)
The mouse activity s[…] (MAST) is a model system designed to detect compounds with possible antianxiety activity in humans. […] The punishment, an electric shock applied through the mouse's paws, quickly extinguishes normal behavior.
The test procedure is modified from Boissier, et al., European J. Pharm., 4, 145-151 (1968). Female white mice, fasted 16-22 hours, are randomly distributed to fiberglass holding boxes. Mice in groups of 10-20 are dosed orally and returned to their holding boxes until test time. Test drug suspensions or solutions are prepared by sonication in 1% Methocel®. Typical dose ranges include 0.5, 1, 2, and 4 mg/kg of 1, 3, 9, 27, 81 mg/kg plus a vehicle control and are selected to include one dose at which an effect such as sedation, stimulation, muscle weakness or analgesia was seen.
The test apparatus is an opaque, black plastic box with a clear lid and a stainless steel grid floor. The floor of the test box is marked off into four squares of equal size.
After dosing, a mouse is gently placed in one corner of the testing box and during the next minute each time the mouse makes a full crossing from one square section of the box to another the floor is electrified with 0.2 ma current for 2.0 seconds.
The number of shocks received by each mouse is recorded and the mean number of shocks/dose (X) is determined. When X drug at any dose is statistically greater than X controls (Kruskal-Wallis test in S. Siegel^1), antagonism of suppression obtains and the drug is presumed to have antianxiety activity.
^1 S. Siegel: Non-parametric Statistics for Behavioral Sciences, pp. 184-194, McGraw-Hill (1956).
as §3, §4

[4] = system: pentylenetetrazole (PTZ) clonic convulsions; assay: Antipentylenetetrazole (PTZ) test; type: in vivo, mouse; settings: fasted female white mice, intubated (oral), PTZ 40 mg/kg i.v. 30 min later; for ED50: Mus musculus, 0.5 h
From the text: as §5
ANTIPENTYLENETETRAZOLE (PTZ) TEST
Fasted female white mice, 10 per dose are intubated with drug in vehicle as above at doses such as 0, 1, 3, 9, 27 and 81 mg/kg. Thirty minutes later the mice are dosed intravenously with PTZ (Metrazol®^1) at 40 mg/kg (ED98 for clonic convulsions). Dosed animals which remain on a 4"×4" platform for 20 seconds are considered protected. Quantal ED50's are calculated by the moving average method.
^1 Original brand of pentylenetetrazole; sterile 10% aqueous solution for parenteral injection, Knoll Pharmaceutical Company.
as §3, §4

[5] = system: auditory pinna reflex; assay: Auditory Pinna Reflex test (loss of auditory pinna reflex); type: in vivo, mouse; settings: fasted female white mice, intubated (oral), tested at 0.5, 2, 5 and 24 hours; for ED50: Mus musculus, read-out: Mouse ED50, Pinna Reflexes, Auditory
Method: as §5
(§6) Fasted female white mice, 5 per dose are intubated with drug at 4, 12, 36, 108 and 324 mg/kg in 1% Methocel®-1.25% Tween 80®, at 10 ml/kg. The auditory and tactile pinna are tested at 0.5, 2, 5 and 24 hours.
The mouse is placed on a horizontal bar 9 cm from a Galton whistle adjusted for 13 Kc. Failure to flatten the ears during one or two short bursts of sound constitutes loss of auditory pinna reflex.
as §3, §4

[6] = system: tactile pinna reflex; assay: Tactile Pinna Reflex test (loss of tactile pinna reflex); type: in vivo, mouse; settings: fasted female white mice, intubated (oral), tested at 0.5, 2, 5 and 24 hours; for ED50: Mus musculus, read-out: Mouse ED50, Pinna Reflexes, Tactile
Method: as §5, §6
The mouse is held by the tail and the hairs inside the right ear are touched by the fine wire stylus from a 27 gauge needle. Failure of the mouse to twitch or move the head constitutes loss of the tactile pinna reflex.
as §3, §4

[7] = system: morphine-induced Straub tail; assay: Muscle relaxant (anti-Straub tail) test; type: in vivo, mouse; settings: fasted female white mice, intubated (oral), morphine sulfate 53.7 mg/kg s.c. at 25 min, observed 30 min after test drug; for ED50: Mus musculus, 0.5 h
From the text: as §5
MUSCLE RELAXANT (ANTI-STRAUB TAIL) TEST
Fasted female white mice, 5 per dose are intubated with test drug. Twenty-five minutes later morphine sulfate is given subcutaneously at 53.7 mg/kg. Thirty minutes after test drug the mice are observed for presence of Straub tail. Quantal ED50 values for blockade of morphine-induced Straub tail are calculated.
as §3, §4

5-Chloro-2-(N-methyl-N-chlorofluoroacetamido)benzophenone anti-Oxime [(I)]
Mouse ED50, Prehensile Reflexes, Lift [1]: 36.
Mouse ED50, Prehensile Reflexes, Grip [2]: 70.
Mast ED20% [3]: 3.5
Mouse ED50, PTZ [4]: 4.5
Mouse ED50, Pinna Reflexes, Auditory [5]: 23.
Mouse ED50, Pinna Reflexes, Tactile [6]: 360.
Mouse ED50, Muscle Relaxant [7]: 5.8

CN1C(=O)C(F)[N+]([O-])=C(c2ccccc2)c2cc(Cl)ccc21 (stereo not shown) [(II), 7-Chloro-3-fluoro-1,3-dihydro-1-methyl-5-phenyl-2H-1,4-benzodiazepin-2-one 4-Oxide]
ED50 [1]: 62 mg/kg
ED50 [2]: > 450 mg/kg
ED20 [3]: 0.35 mg/kg
ED50 [4]: 3.9 mg/kg
ED50 [5]: 62 mg/kg
ED50 [6]: > 450 mg/kg
ED50 [7]: 1.7 mg/kg

CNC1=Nc2ccc(Cl)cc2C(c2ccccc2)=[N+]([O-])C1 [Chlordiazepoxide]
ED50 [1]: 11 mg/kg
ED50 [2]: 232 mg/kg
ED20 [3]: 1.9 mg/kg
ED50 [4]: 4.5 mg/kg
ED50 [5]: 17 mg/kg
ED50 [6]: 209 mg/kg
ED50 [7]: 1.9 mg/kg

CN1C(=O)CN=C(c2ccccc2)c2cc(Cl)ccc21 [Diazepam]
ED50 [1]: 6 mg/kg
ED50 [2]: 97 mg/kg
ED20 [3]: 0.45 mg/kg
ED50 [4]: 1.3 mg/kg
ED50 [5]: 4 mg/kg
ED50 [6]: 109 mg/kg
ED50 [7]: 0.25 mg/kg
